Test results from patent US6972296B2, “Carboxylic acid derivatives that inhibit the binding of integrins to their receptors” (Encysive Pharmaceuticals Inc., priority 1999, dated 2005).

Molecular target: T1, α4β1 integrin (Homo sapiens, UniProt P05556+P13612)
T1 construct: endogenous in cells; host or cells: Ramos cells
Test: Adhesion of calcein-labeled Ramos cells to CS1 (fibronectin) peptide conjugated ovalbumin
Type: cell-based
Conditions: Ramos cell adhesion to CS1 conjugated ovalbumin
Protocol: A procedure in which a 26-amino acid peptide containing the CS1 sequence of fibronectin with an N-terminal Cys ([…]) was coupled to maleimide activated ovalbumin was used to determine the efficacy of the compounds synthesized. Bovine serum albumin (BSA) and CS1 conjugated ovalbumin were coated onto 96-well polystyrene plates at 0.5 μg/ml in TBS (50 mM TRIS, pH 7.5; 150 mM NaCl) at 4° C. for 16 hours. The plates were washed three times with TBS and blocked with TBS containing 3% BSA at room temperature for 4 hours. Blocked plates were washed three times in binding buffer (TBS; 1 mM MgCl2; 1 mM CaCl2; 1 mM MnCl2) prior to assay. Ramos cells fluorescently labeled with calcein AM were resuspended in binding buffer (10^7 cells/ml) and diluted 1:2 with same buffer with or without compound. 100 μM of compound was added. The cells were added immediately to the wells (2.5×10^5 cells/well) and incubated for 30 minutes at 37° C. Following three washes with binding buffer, adherent cells were lysed and quantitated using a fluorometer. IC50 is defined as the dose required to give 50% inhibition, measured in μM for Tables 2 and 4. The lower the IC50 value and the greater the percentage of inhibition, the more efficient the compound is at prevention of cell adhesion.

[1] = Table 5, dose required to give 50% inhibition
[2] = Table 7, dose required to give 50% inhibition

T1 sequence (P13612 34-1032): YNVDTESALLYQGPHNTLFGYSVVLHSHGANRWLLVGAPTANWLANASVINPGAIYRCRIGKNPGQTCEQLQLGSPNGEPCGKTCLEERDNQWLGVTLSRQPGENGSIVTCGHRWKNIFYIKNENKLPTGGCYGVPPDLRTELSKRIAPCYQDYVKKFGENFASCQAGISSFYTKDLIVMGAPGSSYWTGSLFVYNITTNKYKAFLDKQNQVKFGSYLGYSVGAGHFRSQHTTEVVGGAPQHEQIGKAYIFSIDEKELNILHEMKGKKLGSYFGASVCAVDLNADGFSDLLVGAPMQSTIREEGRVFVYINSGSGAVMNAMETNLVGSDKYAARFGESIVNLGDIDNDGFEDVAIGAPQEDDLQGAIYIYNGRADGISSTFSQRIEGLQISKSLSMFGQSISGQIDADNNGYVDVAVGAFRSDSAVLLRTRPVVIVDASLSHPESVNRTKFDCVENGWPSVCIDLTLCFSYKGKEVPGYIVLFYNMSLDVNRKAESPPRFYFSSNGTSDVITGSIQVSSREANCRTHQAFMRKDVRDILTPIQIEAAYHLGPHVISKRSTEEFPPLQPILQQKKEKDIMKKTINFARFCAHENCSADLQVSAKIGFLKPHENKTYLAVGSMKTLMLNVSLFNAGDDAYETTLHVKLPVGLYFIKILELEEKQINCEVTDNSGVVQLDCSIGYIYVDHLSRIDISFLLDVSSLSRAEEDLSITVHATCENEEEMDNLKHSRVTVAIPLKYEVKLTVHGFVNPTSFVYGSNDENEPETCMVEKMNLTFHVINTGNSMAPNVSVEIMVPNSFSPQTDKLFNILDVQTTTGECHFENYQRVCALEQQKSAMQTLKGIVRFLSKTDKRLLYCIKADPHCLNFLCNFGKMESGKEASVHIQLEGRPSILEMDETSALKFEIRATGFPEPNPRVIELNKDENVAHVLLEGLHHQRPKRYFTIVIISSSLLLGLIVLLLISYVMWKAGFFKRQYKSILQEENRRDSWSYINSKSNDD
T1 sequence (P05556 21-798): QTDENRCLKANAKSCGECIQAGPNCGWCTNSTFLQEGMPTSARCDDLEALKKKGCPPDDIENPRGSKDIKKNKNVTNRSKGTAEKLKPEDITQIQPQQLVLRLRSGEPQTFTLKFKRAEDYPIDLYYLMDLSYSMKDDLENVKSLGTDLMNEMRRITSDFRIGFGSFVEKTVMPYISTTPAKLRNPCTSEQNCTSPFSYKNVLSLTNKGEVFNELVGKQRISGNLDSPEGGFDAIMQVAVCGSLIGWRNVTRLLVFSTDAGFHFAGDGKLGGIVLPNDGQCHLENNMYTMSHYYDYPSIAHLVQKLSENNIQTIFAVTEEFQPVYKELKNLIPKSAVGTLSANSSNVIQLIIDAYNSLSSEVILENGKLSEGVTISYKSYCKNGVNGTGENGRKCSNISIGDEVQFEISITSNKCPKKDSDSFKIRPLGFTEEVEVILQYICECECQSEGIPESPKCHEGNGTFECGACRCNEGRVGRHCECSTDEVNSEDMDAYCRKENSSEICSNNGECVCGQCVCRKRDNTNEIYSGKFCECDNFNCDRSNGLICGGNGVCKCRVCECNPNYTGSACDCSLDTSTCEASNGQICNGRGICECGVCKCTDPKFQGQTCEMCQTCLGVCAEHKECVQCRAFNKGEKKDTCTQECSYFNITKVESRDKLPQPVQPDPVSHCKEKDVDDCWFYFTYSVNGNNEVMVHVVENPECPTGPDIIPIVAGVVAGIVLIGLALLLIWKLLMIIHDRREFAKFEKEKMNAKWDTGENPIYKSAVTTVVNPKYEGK

O=C(O)C[C@H](NC(=O)Nc1cccn(Cc2ccccc2Cl)c1=O)c1ccc(F)c(C(F)(F)F)c1
IC50 (Table 4, 30 minutes at 37° C.): 200 nM

Cc1ccc([C@H](CC(=O)O)NC(=O)Nc2c(O)c(C)cn(Cc3cc(F)ccc3C)c2=O)cc1
IC50 (Table 6, 30 minutes at 37° C.): 20 nM

CSc1ccc(Cl)c(Cn2ccc(O)c(NC(=O)N[C@@H](CC(=O)O)c3ccc(C)cc3)c2=O)c1
IC50 [1]: 15 nM

CCOc1cccc(Cl)c1Cn1c2c(c(O)c(NC(=O)N[C@@H](CC(=O)O)c3ccc(C)cc3)c1=O)CCC2
IC50 [2]: 3 nM

Cc1ccc([C@H](CC(=O)O)NC(=O)Nc2cccn(Cc3ccc(F)cc3)c2=O)cc1
IC50 [1]: 2000 nM

Cc1ccc([C@H](CC(=O)O)NC(=O)Nc2c(Br)ccn(Cc3ccccc3Cl)c2=O)cc1
IC50 (Table 3, 30 minutes at 37° C.): 20 nM

CCOc1cccc(Cl)c1Cn1cc(C)c(O)c(NC(=O)N[C@@H](CC(=O)O)c2cccc(OC(F)(F)F)c2)c1=O [(3S)-3-[({[1-(2-chloro-6-ethoxybenzyl)-4-hydroxy-5-methyl-2-oxo-1,2-dihydropyridin-3-yl]amino}carbonyl)amino]-3-[3-(trifluoromethoxy)phenyl]propanoic acid]
IC50 [2]: 4 nM

Cc1ccc([C@H](CC(=O)O)NC(=O)Nc2c(O)c3c(n(Cc4ccccc4Cl)c2=O)CCC3)cc1C
IC50 (Table 6, 30 minutes at 37° C.): 18 nM

Cc1ccc([C@H](CC(=O)O)NC(=O)Nc2c(O)ccn(Cc3c(C)cccc3C)c2=O)cc1
IC50 [1]: 35 nM

CCOc1cccc([C@H](CC(=O)O)NC(=O)Nc2c(O)c(Cl)cn(Cc3c(Cl)cccc3OCC)c2=O)c1
IC50 [2]: 3 nM

O=C(O)C[C@H](NC(=O)Nc1c(O)ccn(Cc2ccccc2Cl)c1=O)c1cccc(C(F)(F)F)c1 [(3S)-3-{[({1-[(2-chlorophenyl)methyl]-4-hydroxy-2-oxo-1,2-dihydro-3-pyridinyl}amino)carbonyl]amino}-3-[3-(trifluoromethyl)phenyl]propanoic acid]
IC50 (Table 3, 30 minutes at 37° C.): 20 nM

COc1cc([C@H](CC(=O)O)NC(=O)Nc2cccn(Cc3ccccc3Br)c2=O)cc(OC)c1OC
IC50 (Table 4, 30 minutes at 37° C.): 80 nM

Cc1ccc([C@H](CC(=O)O)NC(=O)Nc2cccn(Cc3ccccc3C)c2=O)cc1
IC50 (Table 4, 30 minutes at 37° C.): 100 nM

COc1ccc(Cl)c(Cn2ccc(O)c(NC(=O)N[C@@H](CC(=O)O)c3ccc(C)cc3)c2=O)c1
IC50 [1]: 12 nM

CCn1c2ccccc2c2cc([C@H](CC(=O)O)NC(=O)Nc3c(O)c(C)cn(Cc4ccccc4Cl)c3=O)ccc21
IC50 [2]: 23 nM

Cc1ccc([C@H](CC(=O)O)NC(=O)Nc2c(C)ccn(Cc3c(Cl)cccc3Cl)c2=O)cc1
IC50 (Table 3, 30 minutes at 37° C.): 20 nM

CCOc1cccc(Cl)c1Cn1cc(C)c(O)c(NC(=O)N[C@@H](CC(=O)O)c2cccc(OC(C)C)c2)c1=O [(3S)-3-[({[1-(2-chloro-6-ethoxybenzyl)-4-hydroxy-5-methyl-2-oxo-1,2-dihydropyridin-3-yl]amino}carbonyl)amino]-3-(3-isopropoxyphenyl)propanoic acid]
IC50 (Table 6, 30 minutes at 37° C.): 4 nM

O=C(O)C[C@H](NC(=O)Nc1c(O)ccn(Cc2ccccc2Cl)c1=O)c1cc(F)cc(F)c1
IC50 [1]: 50 nM

CCCCOc1ccc([C@H](CC(=O)O)NC(=O)Nc2c(O)ccn(Cc3ccccc3Cl)c2=O)cc1OCCCC
IC50 [1]: 25 nM

CCOc1cccc(Cl)c1Cn1cc(C)c(O)c(NC(=O)NC(CC(=O)O)c2ccco2)c1=O (centres unmarked)
IC50 [2]: 8 nM

O=C(O)C[C@H](NC(=O)Nc1c(O)ccn(Cc2ccccc2Cl)c1=O)c1cccc(OC(F)F)c1 [(3S)-3-[({[1-(2-chlorobenzyl)-4-hydroxy-2-oxo-1,2-dihydropyridin-3-yl]amino}carbonyl)amino]-3-[3-(difluoromethoxy)phenyl]propanoic acid]
IC50 [1]: 6 nM

O=C(O)C[C@H](NC(=O)Nc1c(O)ccn(Cc2ccccc2Cl)c1=O)c1ccc(C(F)(F)F)cc1
IC50 (Table 3, 30 minutes at 37° C.): 25 nM

O=C(O)C[C@@H](Cc1cccc2ccccc12)NC(=O)Nc1c(O)ccn(Cc2ccccc2Cl)c1=O
IC50 (Table 6, 30 minutes at 37° C.): 2500 nM

O=C(O)CC(NC(=O)Nc1c(O)ccn(Cc2ccccc2Cl)c1=O)c1cc2ccccc2o1 (centres unmarked)
IC50 (Table 6, 30 minutes at 37° C.): 140 nM

Cc1ccc([C@H](CC(=O)O)NC(=O)Nc2c(O)ccn(Cc3cccc(C(F)(F)F)c3)c2=O)cc1
IC50 [1]: 17 nM

Cc1ccc([C@H](CC(=O)O)NC(=O)Nc2c(O)ccn(Cc3ccccc3OC(F)(F)F)c2=O)cc1
IC50 [1]: 25 nM

CCCc1cn(Cc2ccccc2Cl)c(=O)c(NC(=O)N[C@@H](CC(=O)O)c2ccc(C)cc2)c1O [(3S)-3-[({[1-(2-chlorobenzyl)-4-hydroxy-2-oxo-5-propyl-1,2-dihydropyridin-3-yl]amino}carbonyl)amino]-3-(4-methylphenyl)propanoic acid]
IC50 [1]: 20 nM

CCC(CC)Oc1cccc([C@H](CC(=O)O)NC(=O)Nc2c(O)c3c(n(Cc4c(C)cccc4Cl)c2=O)CCC3)c1
IC50 [2]: 22 nM

Cc1ccc([C@H](CC(=O)O)NC(=O)Nc2cccn(Cc3ccc(F)cc3Cl)c2=O)cc1
IC50 (Table 4, 30 minutes at 37° C.): 350 nM

Cc1cc(C)cc([C@H](CC(=O)O)NC(=O)Nc2cccn(Cc3ccccc3Cl)c2=O)c1
IC50 (Table 4, 30 minutes at 37° C.): 100 nM

Cc1ccccc1-c1cccc([C@H](CC(=O)O)NC(=O)Nc2c(O)c(C)cn(Cc3ccccc3Cl)c2=O)c1
IC50 [2]: 20 nM

Cc1cn(Cc2ccccc2Cl)c(=O)c(NC(=O)N[C@H](c2ccccc2)c2nnn[nH]2)c1O
IC50 [2]: > 10000 nM

Cc1cccc(Cl)c1Cn1c2c(c(O)c(NC(=O)N[C@@H](CC(=O)O)c3cccc(N(C)S(C)(=O)=O)c3)c1=O)CCC2 [(3S)-3-{[({1-[(2-chloro-6-methylphenyl)methyl]-4-hydroxy-2-oxo-2,5,6,7-tetrahydro-1H-cyclopenta[b]pyridin-3-yl}amino)carbonyl]amino}-3-{3-[methyl(methylsulfonyl)amino]phenyl}propanoic acid]
IC50 [2]: 1.3 nM

CCOc1ccc([C@H](CC(=O)O)NC(=O)Nc2c(O)c(C)nn(Cc3ccccc3Cl)c2=O)cc1OCC
IC50 (Table 6, 30 minutes at 37° C.): 3 nM

Cc1cn(Cc2ccccc2Cl)c(=O)c(NC(=O)N[C@@H](CC(=O)O)c2cccc(OC(C)C)c2)c1O
IC50 (Table 6, 30 minutes at 37° C.): 3 nM

Cc1cn(Cc2ccccc2Cl)c(=O)c(NC(=O)NC(CC(=O)O)c2ccc(-c3ccccc3)cc2)c1O (centres unmarked)
IC50 (Table 6, 30 minutes at 37° C.): 130 nM

Cc1ccccc1-c1ccc([C@H](CC(=O)O)NC(=O)Nc2c(O)c(C)cn(Cc3ccccc3Cl)c2=O)cc1
IC50 [2]: 55 nM

COc1ccc([C@H](CC(=O)O)NC(=O)Nc2cccn(Cc3ccccc3Cl)c2=O)cc1
IC50 (Table 4, 30 minutes at 37° C.): 100 nM

Cc1cn(Cc2ccccc2Cl)c(=O)c(NC(=O)N[C@@H](CC(=O)O)c2cccc(OC(F)(F)F)c2)c1O
IC50 (Table 6, 30 minutes at 37° C.): 10 nM

Cc1ccc(C(CC(=O)O)NC(=O)Nc2c(O)c(C)cn(Cc3ccccc3Cl)c2=O)o1 (centres unmarked)
IC50 [2]: 20 nM

CC(C)c1ccc([C@H](CC(=O)O)NC(=O)Nc2c(O)c3c(n(Cc4ccccc4Cl)c2=O)CCC3)cc1
IC50 [2]: 17 nM

CCn1c(=O)n(CC)c2cc([C@H](CC(=O)O)NC(=O)Nc3c(O)c4c(n(Cc5ccccc5Cl)c3=O)CCC4)ccc21
IC50 [2]: 4 nM

COc1cc(OC)cc([C@H](CC(=O)O)NC(=O)Nc2c(O)ccn(Cc3c(Cl)cccc3OC)c2=O)c1 [(3S)-3-[({[1-(2-chloro-6-methoxybenzyl)-4-hydroxy-2-oxo-1,2-dihydropyridin-3-yl]amino}carbonyl)amino]-3-(3,5-dimethoxyphenyl)propanoic acid]
IC50 [1]: 1.5 nM

Cc1ccc(N(CC(=O)O)NC(=O)Nc2c(O)ccn(Cc3ccccc3Cl)c2=O)cc1
IC50 [1]: > 10000 nM

Cc1ccc([C@H](CC(=O)O)NC(=O)Nc2c(O)c(C)cn(Cc3cc(F)ccc3Cl)c2=O)cc1
IC50 [2]: 5 nM

CCOc1cccc([C@H](CC(=O)O)NC(=O)Nc2c(O)c(C)cn(Cc3c(Cl)cccc3OCC(C)C)c2=O)c1
IC50 [2]: 14 nM

O=C(O)C[C@H](NC(=O)Nc1cccn(Cc2cccc(C(F)(F)F)c2)c1=O)c1ccc2c(c1)OCO2
IC50 (Table 4, 30 minutes at 37° C.): 800 nM
